From PubChem BioAssay AID1996
Values after ≈ are worked out from the molar mass of the structure shown.

Conditions: buffer; pH 7.4; 200.0 µM

Row | Compound | solubility kinetic [µg/mL]
1 | COc1cccc(CN(C)C(=O)Cc2c[nH]c3ccccc23)c1 | > 46.3
2 | CC(C)Cc1ccc(C(=O)NCc2ccc3c(c2)OCO3)o1 | 28.3 (≈ 93.9 µM)
3 | CC(=O)Nc1ccc(S(=O)(=O)NC2CC3CCC2C3)cc1 (centres undefined) | > 46.3
4 | O=C(COC(=O)Cc1ccc(Cl)cc1)NCc1cccs1 | 35.1 (≈ 108 µM)
5 | C=CCN1CCN(C(=O)c2ccc(-c3ccccc3)cc2)CC1 | 32.3 (≈ 105 µM)
6 | CN1CCN(c2ncnc3nc[nH]c23)CC1 | 28.8 (≈ 132 µM)
7 | CC(C)(C)c1ccc(C2(C)NC(=O)NC2=O)cc1 (centres undefined) | 35.2 (≈ 143 µM)
8 | COc1ccc(CNC(=O)c2c(C)cc(=O)oc2C)cc1 | > 43.1
9 | CCOc1ccc(-n2ccc(=O)c(C(=O)O)n2)cc1 | > 39
10 | COc1ccc(C(=O)C2CCN(C(=O)c3ccc(F)cc3)CC2)cc1 | 50.6 (≈ 148 µM)
11 | CC1CN(C(=O)c2ccc(-c3ccccc3Cl)o2)CC(C)O1 (centres undefined) | 34.8 (≈ 109 µM)
12 | COc1ccc(C(=O)NCC(=O)OCC(=O)NC2CCCCCC2)cc1 | > 54.4
13 | O=S(=O)(/C=C/c1ccccc1)N1CCNCC1 | > 37.8
14 | N#Cc1nc(-c2ccc([N+](=O)[O-])cc2)oc1N1CCCCC1 | 1.3 (≈ 4.36 µM)
15 | C/C(CC(C)C)=N\Oc1nc(C)cc(C)n1 | > 33.2
16 | CCCCc1ccc(NC(=O)Cn2c(=O)c(N3CCCCC3)c(N)n(C)c2=O)cc1 | 26.6 (≈ 64.3 µM)
17 | Cc1ccsc1C(=O)Nc1ccc(OCc2ccccc2)cc1 | < 0.7
18 | Cc1ccsc1C(=O)OCc1nc2ccsc2c(=O)[nH]1 | > 46
19 | CN(C)CCC(=O)c1ccc(F)cc1.Cl | > 34.8
20 | COc1ccc(NC(=O)CSc2nc3c(c(-c4cccs4)c2C#N)CN(C)CC3)cc1OC | 19.9 (≈ 41.4 µM)
21 | CC1(C)Cc2c(C#N)c(N3CCNCC3)nc(-c3ccco3)c2CS1 | 21.5 (≈ 60.7 µM)
22 | COc1ccccc1CNC(=O)c1cc(C(C)=O)c[nH]1 | 25.1 (≈ 92.2 µM)
23 | Cc1ccc2oc(=O)c3cc(C(=O)N4CCN(C)CC4)sc3c2c1 | 11.8 (≈ 34.5 µM)
24 | CCCc1cc(=O)[nH]c(SCC(=O)c2cc(C)n(CC3CCCO3)c2C)n1 (centres undefined) | > 58.4

Row | Compound | solubility kinetic [µg/mL]
25 | Cc1c(Cl)cccc1NC(=O)C1C2C=CC(C2)C1C(=O)O (centres undefined) | > 45.9
26 | NS(=O)(=O)c1ccc(CCNC(=O)COC(=O)c2ccc([N+](=O)[O-])o2)cc1 | > 59.6
27 | Cc1cc(SCC(=O)c2cccc([N+](=O)[O-])c2)nc(=O)[nH]1 | 24.3 (≈ 79.6 µM)
28 | O=C(NCc1ccccc1)c1nccnc1CO | > 36.5
29 | O=C(CN1C(=O)NC2(CCCCCC2)C1=O)NC1CC1 | > 41.9
30 | CC(NCCC1(C(C)C)CCOC(C)(C)C1)c1cccs1 (centres undefined) | > 46.4
31 | CCCc1c(C)nc(N2CCN(c3ccc(F)cc3)CC2)[nH]c1=O | 1.2 (≈ 3.63 µM)
32 | N#CCC(=O)Nc1ccc(C(=O)OCC(=O)NC(=O)Nc2ccc3c(c2)OCCO3)cc1 | 10.5 (≈ 24 µM)
33 | CCOC(=O)N1CCN(C(=S)NC(=O)C2CCCC2)CC1 | > 47
34 | Cc1ccc(S(=O)(=O)N2CCN(C(=O)COC(=O)CNC(=O)c3ccc(C(C)(C)C)cc3)CC2)c(C)c1 | 16.5 (≈ 31.2 µM)
35 | Cc1c(OCC(N)=O)ccc2c(-c3ccccc3)cc(=O)oc12 | 0.9 (≈ 2.91 µM)
36 | Cc1ccc(CN2CC(C(=O)Nc3ncccc3C)CC2=O)cc1 (centres undefined) | > 48.5
37 | COc1cccc(C=Nc2ccc(N3CCOCC3)cc2)c1O | 33.7 (≈ 108 µM)
38 | CC1(C)c2ccccc2N(CC(N)=O)C12C=Cc1ccccc1O2 (centres undefined) | 12.6 (≈ 39.3 µM)
39 | COc1ccccc1C(=O)NC1CCSc2ccccc21 (centres undefined) | 31.5 (≈ 105 µM)
40 | O=C(COC(=O)CC1CC2CCC1C2)Nc1ccccc1Cl (centres undefined) | 12.9 (≈ 40.1 µM)
41 | CC(=O)c1ccc(NC(=O)c2onc(C)c2Cl)cc1 | 6.8 (≈ 24.4 µM)
42 | CO/N=C(/CN1CCCCC1)c1ccc(Cl)cc1 | 8.9 (≈ 33.4 µM)
43 | CCOc1nc(-c2ccccc2)c2cc(C)ccc2n1 | 4.8 (≈ 18.2 µM)
44 | COc1ccc(CC(=O)Nc2cc(S(=O)(=O)Nc3ccc(OC)cc3)ccc2OC)cc1 | 14.6 (≈ 32 µM)
45 | CC(=O)Nc1ccc(C(=O)OCC(=O)Nc2ccc(S(=O)(=O)N3CCOCC3)cc2)cc1 | > 69.2
46 | Cc1cc(C)cc(N2CC(C(=O)NC3CCCCC3)CC2=O)c1 (centres undefined) | 11.4 (≈ 36.3 µM)
47 | Oc1ccccc1C(=S)N1CCN(c2cccc(Cl)c2)CC1 | 20 (≈ 60.1 µM)
48 | COc1ccc(NC(=O)c2cc3ccc(O)cc3o/c2=N\O)cc1 | < 0.3

Row | Compound | solubility kinetic [µg/mL]
49 | COc1cc(F)ccc1S(=O)(=O)NCc1cccnc1 | > 44.4
50 | COC(=O)c1ccc(C)c(NS(=O)(=O)c2cn(C)nc2C)c1 | > 48.5
51 | Cc1cc(S(=O)(=O)Nc2nc(CN3CCOCC3)nc3sc4c(c23)CCC4)ccc1F | 67.4 (≈ 146 µM)
52 | CCN(CC)C(=O)Cn1cc(SCC(=O)NC)c2ccccc21 | 46.5 (≈ 139 µM)
53 | Cc1ccc(N2C(=O)C(Cl)=C(N3CCCCCC3)C2=O)c(C)c1 | 4.5 (≈ 13.5 µM)
54 | Nc1nc(Nc2ccccc2)sc1C(=O)c1ccccc1 | 4.3 (≈ 14.6 µM)
55 | Cc1cc(C)c2c(CN3CCOCC3)cc(=O)oc2c1 | 37.2 (≈ 136 µM)
56 | C/C=C(\C)C(=O)N1CCC(C(=O)c2ccccc2)CC1 | > 40.7
57 | Cc1cccc(NC(=O)C[n+]2ccc(N(C)C)cc2)c1.[Cl-] | 45.9
58 | CCCCOC(=O)C1=C(C)NC(=O)NC1c1ccc(OC)cc1 (centres undefined) | 14.6 (≈ 45.9 µM)
59 | Oc1ccc(-c2ccccc2)cc1CN1CCCCCC1 | 17.4 (≈ 61.8 µM)
60 | CC(NC(=O)CNC(=O)c1cccs1)c1cccc(C(F)(F)F)c1 (centres undefined) | 12.6 (≈ 35.4 µM)
61 | Cc1c(NS(=O)(=O)c2cc(C(=O)NCc3cccnc3)ccc2Cl)c(=O)n(-c2ccccc2)n1C | > 76.8
62 | N#Cc1cccc(NC(=O)c2cncn2-c2ccccc2)c1 | 41.8 (≈ 145 µM)
63 | COc1ccc(Cl)cc1C(=O)NCCCSc1ccccc1 | 7.8 (≈ 23.2 µM)
64 | NC(=O)c1ccc(NC(=O)COC(=O)CCSc2ccccc2)cc1 | 15.1 (≈ 42.1 µM)
65 | CC[C@H](C)[C@H](NC(N)=O)C(=O)NCCc1ccc(Cl)cc1 | > 46.8
66 | CCC1(C)CC(C(N)=S)CCO1 (centres undefined) | 17.1 (≈ 91.3 µM)
67 | Cc1ccc(-n2c(C)c(C)c3c(NCCN(C)C)ncnc32)cc1 | 37.4 (≈ 116 µM)
68 | CC1CC1C(=O)OCC(=O)NC(=O)c1ccccc1 (centres undefined) | > 39.2
69 | Cc1cc(Br)cc(Cl)c1OC(=O)c1ccncc1 | 9.5 (≈ 29.1 µM)
70 | CN(C)C(CNC(=O)c1ccc2ccccc2n1)c1ccccc1 (centres undefined) | 27.5 (≈ 86.1 µM)
71 | CNC(=O)/C(C#N)=C/c1cc(C)n(-c2ccc(N3CCOCC3)cc2)c1C | 1.5 (≈ 4.12 µM)
72 | O=C(COC(=O)c1ccccc1)Nc1ncc([N+](=O)[O-])s1 | > 46.1

Row | Compound | solubility kinetic [µg/mL]
73 | CCn1c(C)nnc1SCC(=O)Nc1ccccc1Cl | > 46.6
74 | Cc1nnc(Nc2ccccc2F)s1 | > 31.4
75 | CC(C)c1ccccc1NC(=O)Nc1ccc(F)cc1F | 2.7 (≈ 9.3 µM)
76 | Cc1cccc(NCc2ccc(N(C)C)cc2)n1 | 27.8 (≈ 115 µM)
77 | COc1ccccc1C(=O)NCCCCNC(=O)c1ccccc1OC | > 53.5
78 | Cn1c(N2CCCC2)nc2c1c(=O)[nH]c(=O)n2C | > 37.4
79 | Cn1c(=O)n(CC(=O)[O-])c(=O)c2c1nc1n2CCS1 | 40.8
80 | Cl.ClCCN1CCN(c2ccnc3cc(Cl)ccc23)CC1 | > 57.5
81 | O=C(Nc1ccccn1)C(=O)Nc1ccccn1 | 35.6 (≈ 147 µM)
82 | O=C(OCCCN1CCOCC1)c1ccc(O)c(O)c1 | > 42.2
83 | O=C(NCCc1ccccc1)c1ccc2c(c1)OCCO2 | > 42.5
84 | Cc1cnc([N+](=O)[O-])n1CCOC(=O)NC(=O)c1ccccc1 | 44.4 (≈ 139 µM)
85 | O=C(Cn1cnc([N+](=O)[O-])c1)NCCc1ccccc1 | > 41.1
86 | CCc1nc(C(N)=O)c2[nH]c(=O)n(-c3ccc(OC)cc3OC)c2n1 | > 51.5
87 | COC(=O)c1cccc(NC(=O)CC2NCCNC2=O)c1 (centres undefined) | 39.6 (≈ 136 µM)
88 | CCC(C)CCCCNC1=NCCS1 (centres undefined) | > 32.2
89 | CC[N+](CC)(CC)CC(=O)Nc1c(C)cccc1C.[Br-] | > 51.5
90 | O=C(Nc1cccc(NC(=O)c2ccccc2F)c1)c1ccccc1 | 0.9 (≈ 2.69 µM)
91 | CCCNC(=O)c1ccc(COc2ccc(CCC)cc2OC)o1 | > 49.7
92 | Cc1cc(C)nc(/N=C(\NC(=O)C(C)(C)C)Nc2ccc(F)cc2)n1 | 0.5 (≈ 1.46 µM)
93 | COc1ccc(-c2cc(C3CC3)nc(N)c2C#N)cc1 | 1.7 (≈ 6.41 µM)
94 | O=C(Nc1cccc2ccccc12)c1ccc([N+](=O)[O-])o1 | 40.3 (≈ 143 µM)
95 | O=S(=O)(c1ccc(F)cc1)N1CCN(CCOc2ccccc2)CC1 | 41.1 (≈ 113 µM)
96 | ClCc1cc2ccccc2nc1Cl | 6.5 (≈ 30.6 µM)

Row | Compound | solubility kinetic [µg/mL]
97 | CC(C#N)OC(=O)c1cccnc1SCC(=O)Nc1ccc2c(c1)OCO2 (centres undefined) | 20.8 (≈ 54 µM)
98 | Cc1ccc(SCCNCc2ccco2)cc1.Cl | 27.9
99 | COc1ccc(OC)c(/C=C2\N=C(c3ccccc3)OC2=O)c1 | 0.8 (≈ 2.59 µM)
100 | CC(CN1C(C)CCCC1C)OC(=O)c1ccc(F)cc1.Cl (centres undefined) | 46.5
101 | Cc1ccc(S(=O)(=O)CCC(=O)Nc2ccccc2C)cc1 | 21.9 (≈ 69 µM)
102 | CC(=O)CC1=NC(C)(C)Cc2ccccc21 | 17.2 (≈ 79.9 µM)
103 | CC1SCC(NC(=O)c2ccccc2Cl)CS1 (centres undefined) | > 43.2
104 | CC1SC(c2ccc(F)cc2)N(CCc2ccccc2)C1=O (centres undefined) | 21.8 (≈ 69.1 µM)
105 | CC(C)(C)NC(=O)CSc1nc(-c2ccc(F)cc2)cs1 | 6.6 (≈ 20.3 µM)
106 | CCOc1ccc(S(=O)(=O)N2CCN(C(=O)C3CC3C)CC2)cc1 (centres undefined) | 51.7 (≈ 147 µM)
107 | O=C(O)c1ccccc1-c1ccccc1C(=O)Nc1ccccc1-c1ccccc1 | > 59
108 | O=C(COc1ccc(F)cc1)N1CCCCCCC1 | 38.8 (≈ 146 µM)
109 | N/C(=N\O)c1ccccc1-n1cccc1 | > 30.2
110 | CC(C)Sc1ccccc1C(=O)Nc1ccc2c(c1)n(C)c(=O)n2C | > 53.3
111 | O=C(Cc1ccccc1)Nc1ccc(NC(=O)c2ccccc2)c(Cl)c1 | 2.3 (≈ 6.3 µM)
112 | Cc1cccc(-c2noc(-c3ccccc3C(=O)NCc3ccco3)n2)c1 | 8.9 (≈ 24.8 µM)
113 | O=C(Cc1cccs1)NCCCc1ccccc1 | > 38.9
114 | COc1ccc(CNC(=O)Nc2ccccc2)cc1 | 13.5 (≈ 52.7 µM)
115 | COCc1cc(C)n(CC(=O)NCC2CCCO2)c(=O)c1C#N (centres undefined) | 41.8 (≈ 131 µM)
116 | CCc1onc(C)c1C(=O)O | > 23.3
117 | COc1ccc(CCNCc2sccc2C)cc1OC.Cl | 36
118 | Cc1ccc(NC(=O)CSc2ccc3c(c2)OCCO3)nc1 | > 47.5
119 | O=C(O)c1ccc(N=Cc2nc(-c3ccco3)oc2O)cc1 | > 44.7
